Key:
Mammalian Vero cells = assay: Cytotoxicity test on Vero cells (resazurin); assay type: cell-based; settings: Chlorocebus sabaeus, 72 h; Table 1; Vero cells, 48 h + 24 h resazurin; read-out: Toxicity IC50 Vero Cell
Trypanosoma cruzi Fe-SOD = assay: SOD enzymatic inhibition, Fe-SOD; assay type: biochemical; settings: at 100 µM
Experimental: Excreted Fe-SOD protein—obtained and quantified as previously described [64]—and commercial Cu/Zn-SOD from human erythrocytes (Sigma-Aldrich) were exposed to the tested compounds at a concentration range from 100 to 0.1 µM to determine in vitro activities using the method previously described.

Trypanosoma cruzi [1] = assay: Parasitemia monitoring in infected BALB/c mice, acute Chagas disease; assay type: in vivo; settings: oral 20 mg/kg per day for 5 days from 9th dpi, versus untreated
Experimental: (§1) Infection was carried out by intraperitoneal inoculation of 5 × 10^5 BTs of T. cruzi per mouse in 0.2 mL PBS [56]. The mice were treated by oral route (~200 µL) once daily for 5 consecutive days. The treatment for mice treated in the acute and chronic phases began when the infection was confirmed (9th day post-infection (dpi)) and was established that the animals had entered the chronic phase (100th dpi), respectively.
(§2) The mice were divided into six groups (n = 3 per group): 0, negative control group (uninfected and untreated mice); I, positive control group (infected and untreated mice); II, BZN group (mice infected and treated with BZN); III, 8 group (mice infected and treated with 8); IV, 10 group (mice infected and treated with 10); V, 15 group (mice infected and treated with 15). The tested compounds and BZN were prepared at 2 mg·mL^−1 in an aqueous suspension vehicle containing 5% (v/v) DMSO and 0.5% (w/v) hydroxypropyl methylcellulose, as previously reported. Therefore, doses of 20 mg·kg^−1 per day were administered for 5 consecutive days, and vehicle only was administered in the negative and positive control groups.
(§3) All in vivo assays for the evaluation of compounds in the acute and chronic CD (Scheme 1)—monitoring of parasitemia, immunosuppression, PCR [59, 60], ELISA [56], and clinical analysis [56]—were performed as previously described. PCR was based on the Spliced Leader (SL) intergenic region sequence of T. cruzi (for detailed description, see literature reported previously).

Trypanosoma cruzi [2] = assay: Anti-T. cruzi IgG (ELISA) and splenomegaly in treated BALB/c mice; assay type: in vivo
Experimental: Otherwise, the immune status of the mice was evaluated—through the titer of total anti-T. cruzi IgG and the splenomegaly (Figure S1)—since it is a characteristic linked to the parasite load and the effectiveness ascribed to the potential candidates. […].
as §3
Figure S1. A) Anti-Trypanosoma cruzi immunoglobulin G levels, expressed in absorbance at 492 nm, at different days post-infection (dpi) for each group of mice treated during the acute and chronic phases of Chagas disease: control (untreated), benznidazole (BZN), 8, 10 and 15. Blank and uninfected mice are also […]
included. […] Values are the means of three mice ± standard deviation. (IS) immunosuppression. * Significant differences between untreated and treated mice for α =
0.05. B) Weight percentage of spleens in the chronic Chagas disease for each group of mice treated during the acute and chronic phases of the disease: control (untreated), benznidazole (BZN), 8, 10 and 15. Values are the means of three mice ± standard deviation. In brackets: reduction of splenomegaly in comparison to […]
(1 picture or pasted object on this page, not shown here)

Trypanosoma cruzi [3] = assay: Parasitemia reactivation after immunosuppression in BALB/c mice; assay type: in vivo; settings: 20 mg/kg per day for 5 days, compared to untreated mice
Experimental: Secondly, the experimental cure was determined using a double checking widely used in in vivo trypanocidal trials. This double checking—based on immunosuppression and PCR (Figure 2B,C, respectively)—was performed to evaluate the treatment effectiveness and the disease extent in both acute and chronic CD at the end of the in vivo timeline. The mice whose parasitemia and PCR remain negative after immunosuppression are considered cured.
Immunosuppression enhances the reactivation of any residual infection, which is proportional to the parasite survival rate.
as §1, §2, §3

FC(F)(F)c1ccc(C[Se][Se]Cc2ccc(C(F)(F)F)cc2)cc1 [compound 8]
CC50 (Mammalian Vero cells): 44.3 ± 2.7 µM | Fe-SOD inhibition (Trypanosoma cruzi Fe-SOD): 100% | parasitemia levels (counting BTs) during the acute CD (Trypanosoma cruzi [1]): trypanocidal activity was even stronger | IgG levels in the acute treatment (Trypanosoma cruzi [2]; from the beginning to the end of the in vivo timeline): very low IgG levels | total anti-T. cruzi IgG levels and splenomegaly (Trypanosoma cruzi [2]; treated BALB/c mice versus untreated, excluding IgG levels of chronic CD): significant reduction | reactivation of infection after immunosuppression (Trypanosoma cruzi [3]; mice treated in acute CD): 67% | reactivation of infection after immunosuppression (Trypanosoma cruzi [3]; mice treated in chronic CD): 44%

Source: PMC8147293, “Library of Selenocyanate and Diselenide Derivatives as In Vivo Antichagasic Compounds Targeting Trypanosoma cruzi Mitochondrion” (Pharmaceuticals, 2021)
